Experimental data: patent US7696161B2, “Exendin agonist compounds” (Amylin Pharmaceuticals, Inc., priority 1997, dated 2010)

Legend:
[1] = test system: C57BLKS/J-m-db mice; assay: Determination of blood glucose levels in db/db mice; format: in vivo; conditions: 1 μg subcutaneous, plasma glucose one hour after injection vs baseline
[2] = molecular target: cyclase (RINm5f membranes); assay: Cyclase activation study (cAMP by SPA immunoassay, membranes); format: biochemical; conditions: cAMP in membranes, 20 minutes incubation at 37° C.
Method: GLP-1(7-36) [NH2] was purchased from Bachem (Torrance, Calif.). All other peptides were prepared using synthesis methods such as those described therein. All chemicals were of the highest commercial grade. The cAMP SPA immunoassay was purchased from Amersham. The radioligands were purchased from New England Nuclear (Boston, Mass.). […] Cells were grown to confluence then harvested and homogenized using on a Polytron homogenizer. Cell homogenates were stored frozen at −70° C. until used. […] Membranes and peptides were combined in […] of assay buffer in 96 well filter-bottom plates (Millipore Corp., Bedford, Mass.). […] Supernatant cAMP contents were quantitated by SPA immunoassay. […] The biological activity of a particular sample was expressed as an EC50 value, calculated as described above.

| SMILES | % drop in glucose [1] [%] | EC50 [2] [nM] |
| --- | --- | --- |
| CC[C@H](C)[C@H](NC(=O)[C@H](Cc1ccccc1)NC(=O)[C@H](CC(C)C)NC(=O)[C@H](CCCNC(=N)N)NC(=O)[C@@H](NC(=O)[C@H](C)NC(=O)[C@H](CCC(=O)O)NC(=O)[C@H](CCC(=O)O)NC(=O)[C@H](CCC(=O)O)NC(=O)[C@H](CC(C)C)NC(=O)[C@H](CCC(N)=O)NC(=O)[C@H](CCCCN)NC(=O)[C@H](CO)NC(=O)[C@H](CC(C)C)NC(=O)[C@H](CC(=O)O)NC(=O)[C@H](CO)NC(=O)[C@@H](NC(=O)[C@H](Cc1ccccc1)NC(=O)[C@@H](NC(=O)CNC(=O)[C@H](CCC(=O)O)NC(=O)[C@H](C)NC(=O)[C@@H](N)Cc1c[nH]cn1)[C@@H](C)O)[C@@H](C)O)C(C)C)C(=O)N[C@@H](CCC(=O)O)C(=O)N[C@@H](Cc1ccccc1)C(=O)N[C@@H](CC(C)C)C(=O)N[C@@H](CCCCN)C(=O)N[C@@H](CC(N)=O)C(N)=O [Compound 4] | 27 | 0.22 |
| CC[C@H](C)[C@H](NC(=O)[C@H](Cc1ccccc1)NC(=O)[C@H](CC(C)C)NC(=O)[C@H](CCCNC(=N)N)NC(=O)[C@@H](NC(=O)[C@H](C)NC(=O)[C@H](CCC(=O)O)NC(=O)[C@H](CCC(=O)O)NC(=O)[C@H](CCC(=O)O)NC(=O)[C@H](CC(C)C)NC(=O)[C@H](CCC(N)=O)NC(=O)[C@H](CCCCN)NC(=O)[C@H](CO)NC(=O)[C@H](CC(C)C)NC(=O)[C@H](CC(=O)O)NC(=O)[C@H](CO)NC(=O)[C@@H](NC(=O)[C@H](Cc1ccccc1)NC(=O)[C@H](C)NC(=O)CNC(=O)[C@H](CCC(=O)O)NC(=O)CNC(=O)[C@@H](N)Cc1c[nH]cn1)[C@@H](C)O)C(C)C)C(=O)N[C@@H](CCC(=O)O)C(=O)N[C@@H](Cc1ccccc1)C(=O)N[C@@H](CC(C)C)C(=O)N[C@@H](CCCCN)C(=O)N[C@@H](CC(N)=O)C(N)=O [Compound 5] | 47 | 9.85 |
| CC[C@H](C)[C@H](NC(=O)[C@H](Cc1ccccc1)NC(=O)[C@H](CC(C)C)NC(=O)[C@H](CCCNC(=N)N)NC(=O)[C@@H](NC(=O)[C@H](C)NC(=O)[C@H](CCC(=O)O)NC(=O)[C@H](CCC(=O)O)NC(=O)[C@H](CCC(=O)O)NC(=O)[C@H](CC(C)C)NC(=O)[C@H](CCC(N)=O)NC(=O)[C@H](CCCCN)NC(=O)[C@H](CO)NC(=O)[C@H](CC(C)C)NC(=O)[C@H](CC(=O)O)NC(=O)[C@H](CO)NC(=O)[C@@H](NC(=O)[C@H](C)NC(=O)[C@@H](NC(=O)CNC(=O)[C@H](CCC(=O)O)NC(=O)CNC(=O)[C@@H](N)Cc1c[nH]cn1)[C@@H](C)O)[C@@H](C)O)C(C)C)C(=O)N[C@@H](CCC(=O)O)C(=O)N[C@@H](Cc1ccccc1)C(=O)N[C@@H](CC(C)C)C(=O)N[C@@H](CCCCN)C(=O)N[C@@H](CC(N)=O)C(N)=O [Compound 6] | 40 | 79.4 |
| CC[C@H](C)[C@H](NC(=O)[C@H](Cc1ccccc1)NC(=O)[C@H](CC(C)C)NC(=O)[C@H](CCCNC(=N)N)NC(=O)[C@@H](NC(=O)[C@H](C)NC(=O)[C@H](CCC(=O)O)NC(=O)[C@H](CCC(=O)O)NC(=O)[C@H](CCC(=O)O)NC(=O)[C@H](CC(C)C)NC(=O)[C@H](CCC(N)=O)NC(=O)[C@H](CCCCN)NC(=O)[C@H](CO)NC(=O)[C@H](CC(C)C)NC(=O)[C@H](CC(=O)O)NC(=O)[C@H](C)NC(=O)[C@@H](NC(=O)[C@H](Cc1ccccc1)NC(=O)[C@@H](NC(=O)CNC(=O)[C@H](CCC(=O)O)NC(=O)CNC(=O)[C@@H](N)Cc1c[nH]cn1)[C@@H](C)O)[C@@H](C)O)C(C)C)C(=O)N[C@@H](CCC(=O)O)C(=O)N[C@@H](Cc1ccccc1)C(=O)N[C@@H](CC(C)C)C(=O)N[C@@H](CCCCN)C(=O)N[C@@H](CC(N)=O)C(N)=O [Compound 7] | 31 | 63.6 |
| CC[C@H](C)[C@H](NC(=O)[C@H](Cc1ccccc1)NC(=O)[C@H](CC(C)C)NC(=O)[C@H](CCCNC(=N)N)NC(=O)[C@@H](NC(=O)[C@H](C)NC(=O)[C@H](CCC(=O)O)NC(=O)[C@H](CCC(=O)O)NC(=O)[C@H](CCC(=O)O)NC(=O)[C@H](CC(C)C)NC(=O)[C@H](CCC(N)=O)NC(=O)[C@H](CCCCN)NC(=O)[C@H](CO)NC(=O)[C@H](C)NC(=O)[C@H](CC(=O)O)NC(=O)[C@H](CO)NC(=O)[C@@H](NC(=O)[C@H](Cc1ccccc1)NC(=O)[C@@H](NC(=O)CNC(=O)[C@H](CCC(=O)O)NC(=O)CNC(=O)[C@@H](N)Cc1c[nH]cn1)[C@@H](C)O)[C@@H](C)O)C(C)C)C(=O)N[C@@H](CCC(=O)O)C(=O)N[C@@H](Cc1ccccc1)C(=O)N[C@@H](CC(C)C)C(=O)N[C@@H](CCCCN)C(=O)N[C@@H](CC(N)=O)C(N)=O [Compound 8] | 44 | 6.8 |
| CC[C@H](C)[C@H](NC(=O)[C@H](Cc1ccccc1)NC(=O)[C@H](CC(C)C)NC(=O)[C@H](CCCNC(=N)N)NC(=O)[C@@H](NC(=O)[C@H](C)NC(=O)[C@H](CCC(=O)O)NC(=O)[C@H](CCC(=O)O)NC(=O)[C@H](CCC(=O)O)NC(=O)[C@H](CC(C)C)NC(=O)[C@H](CCC(N)=O)NC(=O)[C@H](CCCCN)NC(=O)[C@H](C)NC(=O)[C@H](CC(C)C)NC(=O)[C@H](CC(=O)O)NC(=O)[C@H](CO)NC(=O)[C@@H](NC(=O)[C@H](Cc1ccccc1)NC(=O)[C@@H](NC(=O)CNC(=O)[C@H](CCC(=O)O)NC(=O)CNC(=O)[C@@H](N)Cc1c[nH]cn1)[C@@H](C)O)[C@@H](C)O)C(C)C)C(=O)N[C@@H](CCC(=O)O)C(=O)N[C@@H](Cc1ccccc1)C(=O)N[C@@H](CC(C)C)C(=O)N[C@@H](CCCCN)C(=O)N[C@@H](CC(N)=O)C(N)=O [Compound 9] | 41 | 1.68 |
| CC[C@H](C)[C@H](NC(=O)[C@H](Cc1ccccc1)NC(=O)[C@H](CC(C)C)NC(=O)[C@H](CCCNC(=N)N)NC(=O)[C@@H](NC(=O)[C@H](C)NC(=O)[C@H](CCC(=O)O)NC(=O)[C@H](CCC(=O)O)NC(=O)[C@H](CCC(=O)O)NC(=O)[C@H](CC(C)C)NC(=O)[C@H](C)NC(=O)[C@H](CCCCN)NC(=O)[C@H](CO)NC(=O)[C@H](CC(C)C)NC(=O)[C@H](CC(=O)O)NC(=O)[C@H](CO)NC(=O)[C@@H](NC(=O)[C@H](Cc1ccccc1)NC(=O)[C@@H](NC(=O)CNC(=O)[C@H](CCC(=O)O)NC(=O)CNC(=O)[C@@H](N)Cc1c[nH]cn1)[C@@H](C)O)[C@@H](C)O)C(C)C)C(=O)N[C@@H](CCC(=O)O)C(=O)N[C@@H](Cc1ccccc1)C(=O)N[C@@H](CC(C)C)C(=O)N[C@@H](CCCCN)C(=O)N[C@@H](CC(N)=O)C(N)=O [Compound 11] | 40 | 0.48 |
| CC[C@H](C)[C@H](NC(=O)[C@H](Cc1ccccc1)NC(=O)[C@H](CC(C)C)NC(=O)[C@H](CCCNC(=N)N)NC(=O)[C@@H](NC(=O)[C@H](C)NC(=O)[C@H](CCC(=O)O)NC(=O)[C@H](CCC(=O)O)NC(=O)[C@H](CCC(=O)O)NC(=O)[C@H](C)NC(=O)[C@H](CCC(N)=O)NC(=O)[C@H](CCCCN)NC(=O)[C@H](CO)NC(=O)[C@H](CC(C)C)NC(=O)[C@H](CC(=O)O)NC(=O)[C@H](CO)NC(=O)[C@@H](NC(=O)[C@H](Cc1ccccc1)NC(=O)[C@@H](NC(=O)CNC(=O)[C@H](CCC(=O)O)NC(=O)CNC(=O)[C@@H](N)Cc1c[nH]cn1)[C@@H](C)O)[C@@H](C)O)C(C)C)C(=O)N[C@@H](CCC(=O)O)C(=O)N[C@@H](Cc1ccccc1)C(=O)N[C@@H](CC(C)C)C(=O)N[C@@H](CCCCN)C(=O)N[C@@H](CC(N)=O)C(N)=O [Compound 12] | 53 | 15.6 |
